From ChEMBL document CHEMBL1201862, “PubChem BioAssay data set” (2004)
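All cell lines were grown in 96-well plates and treated with compound for 48 hours. GI50 marks 50% less growth.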 Activity calls are given as the source filed them. Cut-off read from the data, not from the text of the source: active = GI50 up to about 1.1 µM and inactive = higher.

Legend:
Assay in all cases: NCI tumour cell line growth inhibition, 48 h
DU-145 = system: DU-145
HOP-92 = system: HOP-92
HT-29 = system: HT-29
IGROV-1 = system: IGROV-1
KM12 = system: KM12
MDA-MB-231 = system: MDA-MB-231
Malme-3M = system: Malme-3M
NCI-H460 = system: NCI-H460
NCI-H522 = system: NCI-H522
OVCAR-8 = system: OVCAR-8
RXF 393 = system: RXF 393
SF-268 = system: SF-268
SF-295 = system: SF-295
SF-539 = system: SF-539
SK-MEL-5 = system: SK-MEL-5
SK-OV-3 = system: SK-OV-3
SN12C = system: SN12C
T47D = system: T47D
U-251 = system: U-251
UACC-257 = system: UACC-257

Measured: GI50

CC1=CC23C(COC(=O)C24CO4)C(C(=O)O)=CC3C1C (centres undefined)
inactive: DU-145 28.1 µM | HOP-92 8.24 µM | HT-29 16.2 µM | IGROV-1 24.1 µM | KM12 6.73 µM | MDA-MB-231 10.9 µM | Malme-3M 6 µM | NCI-H460 18.2 µM | NCI-H522 1.37 µM | OVCAR-8 15.9 µM | RXF 393 3.55 µM | SF-268 4.93 µM | SF-295 24.3 µM | SF-539 15 µM | SK-MEL-5 25.2 µM | SK-OV-3 4.65 µM | SN12C 3.32 µM | T47D 6.21 µM | U-251 11.5 µM | UACC-257 29 µM

COc1cccc(N2C(=O)CS(=O)(=O)C2c2cccc(Oc3ccccc3)c2)c1 (centres undefined)
inactive: DU-145 38.5 µM | HOP-92 12.7 µM | HT-29 13.1 µM | KM12 7.67 µM | MDA-MB-231 30.4 µM | Malme-3M 15.9 µM | NCI-H460 13.6 µM | NCI-H522 6.53 µM | OVCAR-8 21.6 µM | RXF 393 16.5 µM | SF-268 24.4 µM | SF-295 16 µM | SF-539 15.1 µM | SK-MEL-5 7.11 µM | SK-OV-3 38 µM | SN12C 17.6 µM | T47D 19.1 µM | U-251 16.7 µM | UACC-257 15.3 µM

O=C(O)c1ccccc1Sc1ccccc1[N+](=O)[O-]
inactive: DU-145 > 100 µM | HOP-92 > 100 µM | HT-29 > 100 µM | IGROV-1 > 100 µM | KM12 > 100 µM | MDA-MB-231 > 100 µM | Malme-3M > 100 µM | NCI-H460 > 100 µM | NCI-H522 > 100 µM | OVCAR-8 > 100 µM | RXF 393 > 100 µM | SF-268 > 100 µM | SF-295 > 100 µM | SF-539 > 100 µM | SK-MEL-5 > 100 µM | SK-OV-3 > 100 µM | SN12C > 100 µM | T47D > 100 µM | U-251 > 100 µM | UACC-257 > 100 µM

Nc1nc(N)c2cc(-c3ccccc3)cnc2n1
inactive: DU-145 > 10 µM | HOP-92 12.2 µM | HT-29 8.55 µM | IGROV-1 12.9 µM | KM12 16.5 µM | MDA-MB-231 7.89 µM | Malme-3M 8.99 µM | NCI-H460 10.8 µM | NCI-H522 21.6 µM | OVCAR-8 15.4 µM | RXF 393 8.65 µM | SF-268 2.75 µM | SF-295 17 µM | SF-539 14.7 µM | SK-MEL-5 10 µM | SK-OV-3 81.1 µM | SN12C 12.2 µM | T47D 36.8 µM | U-251 15.1 µM | UACC-257 14.2 µM
